The values below are quoted from earlier work in patent US20040185057A1, “Therapeutical vaccination” (priority 2001, published 2004).

Like-named read-outs stand apart in the source and are kept apart here.

Data set [1] concerns HLA-A2 super type MHC class-I molecule, allele A*6802. Conditions: HLA-A2 allele A*6802; read-out: Binding capacity, IC50.

As for `CC(=O)O[C@@H]1[C@H](O[C@@H]2O[C@@H](CO)[C@H](O)[C@H]2O)[C@@H](O[C@@H]2O[C@@H](C)[C@H](O[C@@H]3OC[C@@H](O)[C@H](O)[C@H]3O)[C@@H](O)[C@H]2O)[C@H](OC(=O)[C@]23CCC(C)(C)C[C@H]2C2=CC[C@@H]4[C@@]5(C)CC[C@H](O[C@@H]6O[C@H](C(=O)O)[C@@H](O)[C@H](O[C@@H]7OC[C@@H](O)[C@H](O)[C@H]7O)[C@H]6O[C@@H]6O[C@H](CO)[C@H](O)[C@H](O)[C@H]6O)[C@@](C)(C=O)[C@H]5CC[C@@]4(C)[C@]2(C)CC3)O[C@@H]1C` [Squarroside A], the immunomodulating effect entry is “stimulant effect” (concentrations in the pg range) and “suppressive effect” (concentrations in the μg range).

In the case of AIIRILQQL, the IC50 in data set [1] was 548 nM.

With KMIGGIGGFI, the half-inhibitory concentration (IC50) in data set [1] is 3330 nM.

As for LLQLTVWGI, the concentration for half-maximal inhibition (IC50) in data set [1] was 645 nM.

With LTFGWCFKL, the half-inhibitory concentration (IC50) in data set [1] was 5.6 nM.

With LTFGWCFKLV, in data set [1], the IC50 was 6.2 nM.

Turning to LVGPTPVNI, in data set [1], the half-maximal inhibitory concentration (IC50) is 67.8 nM.

As to MASDFNLPPV, the IC50 in data set [1] was 18.2 nM.

With MTNNPPIPV, the IC50 in data set [1] is 12.1 nM.

For the compound RILQQLLFI, the concentration for half-maximal inhibition (IC50) in data set [1] is 1820 nM.

In the case of SLLNATDIAV, the IC50 in data set [1] was 5480 nM.

What is called IC50 is the concentration that inhibits the measured activity by half.
